From PMC4394749 (Journal of medicinal chemistry, 2015)

Experiments:
PC-3 cells [1] = assay: Immunofluorescence staining of microtubules in PC-3 cells; type: cell-based, human; settings: PC-3, 24 h; for microtubule morphology: equitoxic concentrations: 0.2 µM 4, 0.2 µM CA-4, 5 µM VIN, 0.2 µM PXL; for dose-dependent effects on microtubule morphology: compounds 0.2, 2 or 20 µM, CA-4 0.002 or 20 µM
A549 (lung carcinoma) = assay: SRB antiproliferative assay, A549; type: cell-based, human; settings: for IC50: read-out: IC50 A549, 72 h; for IC50 A549: 72 h
KB-VIN cells [2] = assay: Tubulin assembly in KB-VIN cells; type: cell-based, human; settings: data not shown
bovine brain tubulin [3] = molecular target: T1, bovine brain tubulin (Bos taurus, UniProt P81947+Q6B856); assay: Inhibition of purified tubulin assembly; type: biochemical
T1 sequence (P81947 whole entry): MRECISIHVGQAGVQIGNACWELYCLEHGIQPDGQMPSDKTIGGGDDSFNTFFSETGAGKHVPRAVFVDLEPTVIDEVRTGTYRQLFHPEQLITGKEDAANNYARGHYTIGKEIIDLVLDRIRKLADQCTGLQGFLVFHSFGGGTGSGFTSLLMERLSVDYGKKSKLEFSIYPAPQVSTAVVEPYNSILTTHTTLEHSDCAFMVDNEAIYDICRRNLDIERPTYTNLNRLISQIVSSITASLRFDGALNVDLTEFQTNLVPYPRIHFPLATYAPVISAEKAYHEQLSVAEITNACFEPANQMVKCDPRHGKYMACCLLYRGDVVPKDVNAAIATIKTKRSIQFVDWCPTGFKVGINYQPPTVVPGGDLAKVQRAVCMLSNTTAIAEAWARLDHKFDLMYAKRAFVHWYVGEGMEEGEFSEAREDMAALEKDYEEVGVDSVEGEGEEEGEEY
T1 sequence (Q6B856 whole entry): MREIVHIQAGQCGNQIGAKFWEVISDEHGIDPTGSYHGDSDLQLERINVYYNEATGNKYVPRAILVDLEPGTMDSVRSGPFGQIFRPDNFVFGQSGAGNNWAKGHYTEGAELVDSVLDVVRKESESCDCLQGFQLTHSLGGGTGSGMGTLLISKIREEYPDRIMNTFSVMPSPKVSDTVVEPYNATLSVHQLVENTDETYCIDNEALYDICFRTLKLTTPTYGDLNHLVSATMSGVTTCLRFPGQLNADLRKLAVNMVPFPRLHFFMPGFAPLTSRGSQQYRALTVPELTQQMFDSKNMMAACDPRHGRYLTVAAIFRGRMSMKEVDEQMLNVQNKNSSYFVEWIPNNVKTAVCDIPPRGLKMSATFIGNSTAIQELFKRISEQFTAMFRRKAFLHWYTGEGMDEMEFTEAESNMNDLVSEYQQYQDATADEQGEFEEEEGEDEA

[4] = tested on: SK-BR-3 (HER2-overexpressing breast cancer); assay: SRB antiproliferative assay, SK-BR-3; type: cell-based, human; settings: for IC50: read-out: IC50 SK-BR3, 72 h
[5] = tested on: KB-VIN (P-gp-overexpressing MDR subline of KB); assay: SRB antiproliferative assay, KB-VIN; type: cell-based, human; settings: for IC50: read-out: IC50 KB-VIN, 72 h
PC-3 (prostate cancer) = assay: SRB antiproliferative assay, PC-3; type: cell-based, human; settings: for IC50: read-out: IC50 PC-3; for IC50 / IC50 PC-3: SRB, 72 h
[6] = tested on: KB (epidermoid carcinoma of the nasopharynx); assay: SRB antiproliferative assay, KB; type: cell-based, human; settings: for IC50: read-out: IC50 KB, 72 h; for IC50 KB: 72 h
[7] = tested on: MDA-MB-231 (triple-negative breast cancer); assay: SRB antiproliferative assay, MDA-MB-231; type: cell-based, human; settings: read-out: IC50 MDA-MB-231, 72 h
[8] = tested on: MCF-7 (estrogen-receptor-positive, HER2-negative breast cancer); assay: SRB antiproliferative assay, MCF-7; type: cell-based, human; settings: read-out: IC50 MCF-7, 72 h
[9] = tested on: ZR-75-1 (estrogen-receptor-positive, HER2-positive breast cancer); assay: SRB antiproliferative assay, ZR-75-1; type: cell-based, human; settings: read-out: IC50 ZR-75-1, 72 h
[10] = tested on: tumor cell lines overexpressing P-gp; settings: cited from earlier work
bovine brain tubulin [11] = molecular target: T1, bovine brain tubulin; assay: Inhibition of [3H]colchicine binding to tubulin; settings: for ICB, percent inhibition of colchicine binding: 5 µM [3H]colchicine, 1 µM tubulin, 5 µM test compound
[12] = tested on: HepG2 (hepatocellular carcinoma); assay: SRB antiproliferative assay, HepG2; type: cell-based, human; settings: for IC50: read-out: IC50 Hep-G2, 72 h; for IC50 Hep-G2: 72 h
PC-3 cells [13] = assay: Cell cycle analysis by flow cytometry; type: cell-based, human; settings: 2 µM, 24 h
[14] = tested on: HCT-8 (human colon adenocarcinoma); assay: SRB antiproliferative assay, HCT-8; type: cell-based; settings: for IC50: read-out: IC50 HCT-8; for IC50 / IC50 HCT-8: SRB, 72 h
human tumor cell lines = assay: SRB antiproliferative assay, comparison across tumor cell lines; type: cell-based
KB cells = assay: Cell cycle analysis by flow cytometry; type: cell-based, human; settings: 6 or 24 h, PXL 0.02 µM, 4 0.5 µM, 8 2 µM
KB-VIN cells [15] = assay: Cell cycle analysis by flow cytometry; type: cell-based, human; settings: 6 or 24 h, PXL 3 µM, 4 0.5 µM, 8 2 µM

Compound	IC50 (A549 (lung carcinoma)) [µM]	IC50 [4] [µM]	IC50 [5] [µM]	IC50 (PC-3 (prostate cancer)) [µM]	IC50 [6] [µM]	ICB, percent inhibition of colchicine binding (bovine brain tubulin [11]) [%]	IC50 [12] [µM]	IC50 [14] [µM]	also measured
COc1ccc(/C=C\c2cc(OC)c(OC)c(OC)c2)cc1O [CA-4, combretastatin A-4, reference compound]	–	–	–	–	–	–	–	–	microtubule morphology (PC-3 cells [1]): both depolymerization of interphase microtubules and disruption of mitotic spindles; dose-dependent effects on microtubule morphology (PC-3 cells [1]): Dose-dependent disruption of both interphase microtubules and spindles
CC1=C(O)C(C)(C)c2oc(-c3ccccc3)cc(=O)c2C1=O [Compound 1, Desmosdumotin B, reference compound]	> 40	> 40	6.76	> 40	> 135	–	–	–	effect on tubulin assembly in cells (KB-VIN cells [2]): no effects on tubulin assembly; ITA, inhibition of purified tubulin assembly, EC50 (bovine brain tubulin [3]; 10 µM tubulin, 0.4 mM GTP, 30 °C, NA = not active): no effects on tubulin assembly; IC50 [7]: > 40 µM; IC50 [8]: > 40 µM; IC50 [9]: > 40 µM; selective index (SI), IC50 against non-MDR cells divided by IC50 against MDR cells [10]: > 20
CCC1=C(O)c2c(oc(-c3ccccc3)cc2=O)C(CC)(CC)C1=O [Compound 2, 6,8,8-triethyldesmosdumotin B]	–	–	–	–	–	–	–	–	selective index (SI), IC50 against non-MDR cells divided by IC50 against MDR cells [10]: > 220
CCC1=C(O)c2c(oc(-c3csc4cccc(O)c34)cc2=O)C(CC)(CC)C1=O [Compound 6, 2-(4′-Hydroxybenzo[b]thiophen-3′-yl)-6,8,8-triethyldesmos-dumotin B]	1.78	0.65	–	1.73	2.01	70	1.29	1.71	inhibitory effect on tubulin assembly, fold greater than 8 (bovine brain tubulin [3]; 6 compared with 8): 2 fold; inhibitory effect on colchicine binding, fold greater than 8 (bovine brain tubulin [11]; 6 compared with 8): 2 fold; effect on cell cycle distribution (PC-3 cells [13]): efficiently induced accumulation of G2/M phase cells; dose-dependent effects on microtubule morphology (PC-3 cells [1]): Dose-dependent disruption of both interphase microtubules and spindles; IC50 [7]: 0.71 µM; IC50 [8]: 2.75 µM; IC50 [9]: 11.6 µM
CCC1=C(O)c2c(oc(-c3csc4ccc(O)cc34)cc2=O)C(CC)(CC)C1=O [Compound 7, 2-(5′-Hydroxybenzo[b]thiophen-3′-yl)-6,8,8-triethyldesmos-dumotin B]	–	–	–	–	–	32	–	–	–
CCC1=C(O)c2c(oc(-c3csc4cc(O)ccc34)cc2=O)C(CC)(CC)C1=O [Compound 8, 2-(6′-Hydroxybenzo[b]thiophen-3′-yl)-6,8,8-triethyldesmos-dumotin B]	–	–	–	–	–	39	–	–	–
CCC1=C(O)c2c(oc(-c3csc4c(O)cccc34)cc2=O)C(CC)(CC)C1=O [Compound 9, 2-(7′-Hydroxybenzo[b]thiophen-3′-yl)-6,8,8-triethyldesmos-dumotin B]	2.04	–	1.12	1.47	1.28	37	3.01	10.6	effect on cell cycle distribution (PC-3 cells [13]): efficiently induced accumulation of G2/M phase cells; dose-dependent effects on microtubule morphology (PC-3 cells [1]): Dose-dependent disruption of both interphase microtubules and spindles; fold reduced inhibitory effect against HCT-8 ([14]; compared with 6 and 8): more than 5 fold
CCC1=C(O)c2c(oc(-c3csc4cccc(OC)c34)cc2=O)C(CC)(CC)C1=O [Compound 10, 2-(4′-Methoxybenzo[b]thiophen-3′-yl)-6,8,8-triethyldes-mosdumotin B]	–	18.7	11.8	–	–	–	–	–	IC50 A549 (A549 (lung carcinoma)): NA (NA, not active (IC50 > 10 µg/mL)); IC50 PC-3 (PC-3 (prostate cancer)): NA (NA, not active (IC50 > 10 µg/mL)); IC50 Hep-G2 [12]: NA (NA, not active (IC50 > 10 µg/mL)); IC50 KB [6]: NA ^e (NA, not active (IC50 > 10 µg/mL)); IC50 HCT-8 [14]: NA (NA, not active (IC50 > 10 µg/mL))
CCC1=C(O)c2c(oc(-c3csc4ccc(OC)cc34)cc2=O)C(CC)(CC)C1=O [Compound 11, 2-(5′-Methoxybenzo[b]thiophen-3′-yl)-6,8,8-triethyldes-mosdumotin B]	–	–	–	–	–	–	–	16.2	IC50 A549 (A549 (lung carcinoma)): NA (NA, not active (IC50 > 10 µg/mL)); IC50 SK-BR3 ([4]; 72 h): NA (NA, not active (IC50 > 10 µg/mL)); IC50 KB-VIN ([5]; 72 h): NA (NA, not active (IC50 > 10 µg/mL)); IC50 PC-3 (PC-3 (prostate cancer)): NA (NA, not active (IC50 > 10 µg/mL)); IC50 Hep-G2 [12]: NA (NA, not active (IC50 > 10 µg/mL)); IC50 KB [6]: NA (NA, not active (IC50 > 10 µg/mL))
CCC1=C(O)c2c(oc(-c3csc4c(OC)cccc34)cc2=O)C(CC)(CC)C1=O [Compound 12, 2-(7′-Methoxybenzo[b]thiophen-3′-yl)-6,8,8-triethyldes-mosdumotin B]	15.8	7.97	10.7	8.51	12.1	–	–	–	IC50 Hep-G2 [12]: NA (NA, not active (IC50 > 10 µg/mL)); IC50 [7]: 8.17 µM; IC50 HCT-8 [14]: NA (NA, not active (IC50 > 10 µg/mL)); IC50 [8]: 7.22 µM; IC50 [9]: 9.81 µM
CCC1=C(O)c2c(oc(-c3sc4ccccc4c3O)cc2=O)C(CC)(CC)C1=O [Compound 14, 2-(3′-Hydroxybenzo[b]thiophen-2′-yl)-6,8,8-triethyldesmos-dumotin B]	12.5	12.1	6.61	14.6	19.6	–	15.8	16.5	fold reduced activity against PC-3 (PC-3 (prostate cancer); compared with parent compound 13): 4 fold
CCC1=C(O)c2c(oc(-c3ccc(O)c4ccccc34)cc2=O)C(CC)(CC)C1=O [Compound 16, 2-(4′-Hydroxynaphthalen-1′-yl)-6,8,8-triethyldesmosdumo-tin B]	0.94	–	0.45	1.11	0.74	54	0.37	1.02	antiproliferative effect, times greater than parent compound 5 (human tumor cell lines; HepG2, KB and KB-VIN): 2–6 times
CCC1=C(O)c2c(oc(-c3ccc4cc(O)ccc4c3)cc2=O)C(CC)(CC)C1=O [Compound 19, 2-(6′-Hydroxynaphthalen-2′-yl)-6,8,8-triethyldesmosdumo-tin B]	14.9	13.8	13.7	12.9	19.9	–	13.4	14.1	fold less active than 15 and 16 (human tumor cell lines; generally, over the tested cell lines): ~10 fold
CC(=O)O[C@H]1C(=O)[C@@]2(C)[C@H]([C@H](OC(=O)c3ccccc3)[C@]3(O)C[C@H](OC(=O)[C@H](O)[C@@H](NC(=O)c4ccccc4)c4ccccc4)C(C)=C1C3(C)C)[C@]1(OC(C)=O)CO[C@@H]1C[C@@H]2O [PXL, paclitaxel, reference compound]	–	–	–	–	–	–	–	–	effect on cell cycle distribution (KB cells): significantly impacted the cell cycle; effect on cell cycle distribution (KB-VIN cells [15]): did not show any effect; microtubule morphology (PC-3 cells [1]): inhibited the onset of mitosis and arrested cells at prometaphase with condensed chromosomes
CC[C@]1(O)C[C@H]2CN(CCc3c([nH]c4ccccc34)[C@@](C(=O)OC)(c3cc4c(cc3OC)N(C=O)[C@H]3[C@@](O)(C(=O)OC)[C@H](OC(C)=O)[C@]5(CC)C=CCN6CC[C@]43[C@@H]65)C2)C1 [VIN, vincristine, reference compound]	–	–	–	–	–	–	–	–	microtubule morphology (PC-3 cells [1]): tubulin paracrystal formation
